# In US20260053811A1, “METHODS OF TREATING HYPERTENSION IN OBESE SUBJECTS” (Mineralys Therapeutics, Inc., priority 2022, published 2026):
# System: hypertensive subjects
# Test: Seated automated office blood pressure (AOBP) in randomized, placebo-controlled, dose-ranging study
# Format: in vivo, human
# Conditions: Part 1
# Procedure: A randomized, double-blinded, placebo-controlled, dose-ranging, multicenter study was conducted to evaluate the effect of orally administered Compound A HBr on blood pressure for the treatment of hypertension in male and female subjects ≥18 years of age.
# The study consists of two parts. For enrollment into Part 1 of the study, a subject's value of plasma renin activity (PRA) must be ≤1 ng/mL/h based on morning measurement. If the value of PRA >1 ng/mL/h based on morning measurement, then subjects may be eligible to enter Part 2 of the study.
# For Part 1, 163 enrolled subjects ≥18 years of age were randomized into 6 equal treatment groups (1:1:1:1:1:1) to 12.5 mg BID, 25 mg BID, 12.5 mg QD, 50 mg QD, 100 mg QD, or placebo. After a review of interim clinical data, the 2 lowest dose levels (12.5 mg QD and 12.5 mg BID) were stopped for future randomization due to a lack of consistent meaningful reduction of blood pressure, but the patients randomized to that point remained in the study through completion. Thus, after the review of interim clinical data, subjects were randomized into 4 equal treatment groups (1:1:1:1) to 25 mg BID, 50 mg QD, 100 mg QD, or placebo.
# For Part 2, 36 enrolled subjects ≥18 years of age were randomized (5:1) to either 100 mg QD Compound A HBr or placebo such that the Compound A HBr treatment group consisted of approximately 30 subjects and the placebo treatment group will consist of approximately 6 subjects.
# Subjects orally administered the assigned study drug (Compound A HBr or placebo) according to the assigned dosing regimen for 8 weeks beginning on Study Day 1. All subjects in Part 1 (regardless of dosing group) received BID dosing to preserve the integrity of the blind; active drug is administered as the morning dose for all QD dose groups. Subjects returned to the research facility or were seen by the clinical investigator or approved home health care professional at the end of Study Weeks 1, 2, 3, 4, 5, 6, 7, and 8 (±2 days) for protocol-defined efficacy and safety assessments and procedures, assessment of adverse events (AEs), and confirmation of compliance with study drug usage. Subjects also completed a telephone visit and blood pressure (BP) check at home approximately 3 days post last dose of study drug. Subjects attended up to 14 full clinic visits, including a pre-Screening visit, a Screening/start of Placebo Run-in visit, a second visit during Placebo Run-in, a clinic visit to initiate the ABPM procedure, a Randomization visit, 8 weekly visits during double-blind treatment, and an end-of-study visit scheduled 4 weeks after the last study treatment for final efficacy and safety assessments.
# An automated oscillometric sphygmomanometer device was used to measure the subjects' systolic and diastolic blood pressure in office after approximately 5 minutes of rest in the seated position.
# The primary endpoint is the change in office-measured (mean of last 2 of 5 unattended measurements using an automated oscillometric sphygmomanometer device after approximately 5 minutes of rest in the seated position) systolic blood pressure (SBP) from baseline to the end of Study Week 8.
# Secondary endpoints of this study were: • (a) Change in 24-hour ambulatory blood pressure monitoring (ABPM) parameters (systolic and diastolic) from baseline to the end of Study Week 7. • (b) Change in office-measured SBP from baseline to the end of Study Weeks 1, 2, 3, 4, 5, 6, and 7. • (c) Change in office-measured diastolic blood pressure (DBP) from baseline to the end of Study Weeks 1, 2, 3, 4, 5, 6, 7, and 8. • (d) Proportion of subjects who achieve office-measured BP of ≤130/80 mm Hg by the end of Study Week 8.
# [1] = 12.5 mg QD, Systolic Blood Pressure Tertile at Baseline Low
# [2] = 12.5 mg QD, Systolic Blood Pressure Tertile at Baseline Middle
# [3] = 12.5 mg QD, Thiazide Diuretic Use at Baseline No
# [4] = 12.5 mg QD, Thiazide Diuretic Use at Baseline Yes
smiles,measurement,setting,value
CC(=O)N[C@H]1CC[C@H](NC(=O)CN2CCN(c3nncc(-c4ccc(C)cc4)n3)CC2)CC1 [Compound A HBr],Mean (SD) Change from Baseline at Week 8 in Automated Office-Measured Systolic Blood Pressure,"12.5 mg QD, Systolic Blood Pressure Tertile at Baseline High",−10.83 (23.91) mmHg
same,Mean (SD) Automated Office-Measured Systolic Blood Pressure at Wk 8,[1],131.17 (12.77) mmHg
same,Mean (SD) Change from Baseline at Week 8 in Automated Office-Measured Systolic Blood Pressure,[1],−3.75 (13.24) mmHg
same,Mean (SD) Automated Office-Measured Systolic Blood Pressure at Wk 8,[2],143.33 (22.23) mmHg
same,Mean (SD) Change from Baseline at Week 8 in Automated Office-Measured Systolic Blood Pressure,[2],−1.17 (21.80) mmHg
same,"Automated Office-Measured Diastolic Blood Pressure, Week 8, Mean (SD)",[3],88.11 (21.40) mmHg
same,Mean (SD) Automated Office-Measured Systolic Blood Pressure at Wk 8,[3],149.11 (26.02) mmHg
same,Mean (SD) Change from Baseline at Week 8 in Automated Office-Measured Diastolic Blood Pressure,[3],1.56 (17.70) mmHg
same,Mean (SD) Change from Baseline at Week 8 in Automated Office-Measured Systolic Blood Pressure,[3],−5.83 (25.10) mmHg
same,"Automated Office-Measured Diastolic Blood Pressure, Week 8, Mean (SD)",[4],74.78 (8.58) mmHg
same,Mean (SD) Automated Office-Measured Systolic Blood Pressure at Wk 8,[4],132.44 (14.02) mmHg
same,Mean (SD) Change from Baseline at Week 8 in Automated Office-Measured Diastolic Blood Pressure,[4],−5.11 (6.26) mmHg
same,Mean (SD) Change from Baseline at Week 8 in Automated Office-Measured Systolic Blood Pressure,[4],−7.89 (14.31) mmHg
same,Mean (SD) Automated Office-Measured Systolic Blood Pressure at Wk 8,"25 mg BID, ACEi/ARB No",123.67 (28.36) mmHg
same,Mean (SD) Change from Baseline at Week 8 in Automated Office-Measured Systolic Blood Pressure,"25 mg BID, ACEi/ARB No",−19.17 (12.25) mmHg
same,Mean (SD) Automated Office-Measured Systolic Blood Pressure at Wk 8,"25 mg BID, ACEi/ARB Yes",132.20 (15.32) mmHg
same,Mean (SD) Change from Baseline at Week 8 in Automated Office-Measured Systolic Blood Pressure,"25 mg BID, ACEi/ARB Yes",−9.04 (14.04) mmHg
same,Mean (SD) Automated Office-Measured Diastolic Blood Pressure at Wk 8,"25 mg BID, ACEi/ARBs No",68.67 (8.33) mmHg
same,Mean (SD) Change from Baseline at Week 8 in Automated Office-Measured Diastolic Blood Pressure,"25 mg BID, ACEi/ARBs No",−10.33 (13.25) mmHg
same,Mean (SD) Automated Office-Measured Diastolic Blood Pressure at Wk 8,"25 mg BID, ACEi/ARBs Yes",76.24 (13.40) mmHg
same,Mean (SD) Change from Baseline at Week 8 in Automated Office-Measured Diastolic Blood Pressure,"25 mg BID, ACEi/ARBs Yes",−2.88 (11.56) mmHg
same,Mean (SD) Automated Office-Measured Diastolic Blood Pressure at Wk 8,"25 mg BID, AHTs 2",79.31 (15.91) mmHg
same,Mean (SD) Automated Office-Measured Systolic Blood Pressure at Wk 8,"25 mg BID, AHTs 2",136.92 (18.45) mmHg
same,Mean (SD) Change from Baseline at Week 8 in Automated Office-Measured Diastolic Blood Pressure,"25 mg BID, AHTs 2",−2.12 (15.46) mmHg
same,Mean (SD) Change from Baseline at Week 8 in Automated Office-Measured Systolic Blood Pressure,"25 mg BID, AHTs 2",−6.15 (13.68) mmHg
same,Mean (SD) Automated Office-Measured Diastolic Blood Pressure at Wk 8,"25 mg BID, AHTs ≥3",72.07 (9.26) mmHg
same,Mean (SD) Automated Office-Measured Systolic Blood Pressure at Wk 8,"25 mg BID, AHTs ≥3",126.40 (13.57) mmHg
same,Mean (SD) Change from Baseline at Week 8 in Automated Office-Measured Diastolic Blood Pressure,"25 mg BID, AHTs ≥3",−5.03 (7.45) mmHg
same,Mean (SD) Change from Baseline at Week 8 in Automated Office-Measured Systolic Blood Pressure,"25 mg BID, AHTs ≥3",−13.57 (13.83) mmHg
same,Mean (SD) Automated Office-Measured Diastolic Blood Pressure at Wk 8,"25 mg BID, Age 65-79 yr",74.71 (17.26) mmHg
same,Mean (SD) Automated Office-Measured Systolic Blood Pressure at Wk 8,"25 mg BID, Age 65-79 yr",133.86 (19.37) mmHg
same,Mean (SD) Change from Baseline at Week 8 in Automated Office-Measured Diastolic Blood Pressure,"25 mg BID, Age 65-79 yr",−0.46 (14.22) mmHg
same,Mean (SD) Change from Baseline at Week 8 in Automated Office-Measured Systolic Blood Pressure,"25 mg BID, Age 65-79 yr",−7.82 (14.88) mmHg
same,Mean (SD) Automated Office-Measured Diastolic Blood Pressure at Wk 8,"25 mg BID, Age <65 yr",76.54 (7.57) mmHg
same,Mean (SD) Automated Office-Measured Systolic Blood Pressure at Wk 8,"25 mg BID, Age <65 yr",127.38 (13.07) mmHg
same,Mean (SD) Change from Baseline at Week 8 in Automated Office-Measured Diastolic Blood Pressure,"25 mg BID, Age <65 yr",−6.69 (8.06) mmHg
same,Mean (SD) Change from Baseline at Week 8 in Automated Office-Measured Systolic Blood Pressure,"25 mg BID, Age <65 yr",−12.31 (13.78) mmHg
same,Mean (SD) Automated Office-Measured Diastolic Blood Pressure at Wk 8,"25 mg BID, Age ≥80 yr",71.00 (NE) mmHg
same,Mean (SD) Automated Office-Measured Systolic Blood Pressure at Wk 8,"25 mg BID, Age ≥80 yr",146.00 (NE) mmHg
same,Mean (SD) Change from Baseline at Week 8 in Automated Office-Measured Diastolic Blood Pressure,"25 mg BID, Age ≥80 yr",−9.50 (NE) mmHg
same,Mean (SD) Change from Baseline at Week 8 in Automated Office-Measured Systolic Blood Pressure,"25 mg BID, Age ≥80 yr",−14.00 (NE) mmHg
same,Mean (SD) Automated Office-Measured Diastolic Blood Pressure at Wk 8,"25 mg BID, BMI 25−30 kg/m^2",78.89 (20.58) mmHg
same,Mean (SD) Change from Baseline at Week 8 in Automated Office-Measured Diastolic Blood Pressure,"25 mg BID, BMI 25−30 kg/m^2",1.11 (16.18) mmHg
same,Mean (SD) Automated Office-Measured Diastolic Blood Pressure at Wk 8,"25 mg BID, BMI <25 kg/m^2",69.25 (9.50) mmHg
same,Mean (SD) Change from Baseline at Week 8 in Automated Office-Measured Diastolic Blood Pressure,"25 mg BID, BMI <25 kg/m^2",−8.25 (7.63) mmHg
same,Mean (SD) Automated Office-Measured Diastolic Blood Pressure at Wk 8,"25 mg BID, BMI >30 kg/m^2",75.00 (6.97) mmHg
